From patent US20250154109A1, “SODIUM CHANNEL BLOCKING COMPOUNDS, DERIVATIVES THEREOF, AND METHODS OF THEIR USE” (LATIGO BIOTHERAPEUTICS, INC, priority 2022, published 2025)
Structures can show the parent of a compound that is named as a salt. Where two headings read alike, the source gives them in different places.

Target: human Nav1.8 (Homo sapiens, UniProt Q9Y5Y9)
Experiment: SyncroPatch384PE assay (automated patch clamp)
Assay type: cell-based
Details: human Nav1.8/b3 CHO cells
[1] = inactivated state block (P2 measurement), read-out: P2 IC50
[2] = resting state block (P1 measurement), read-out: P1 IC50

Sequence of human Nav1.8 (Q9Y5Y9 whole entry): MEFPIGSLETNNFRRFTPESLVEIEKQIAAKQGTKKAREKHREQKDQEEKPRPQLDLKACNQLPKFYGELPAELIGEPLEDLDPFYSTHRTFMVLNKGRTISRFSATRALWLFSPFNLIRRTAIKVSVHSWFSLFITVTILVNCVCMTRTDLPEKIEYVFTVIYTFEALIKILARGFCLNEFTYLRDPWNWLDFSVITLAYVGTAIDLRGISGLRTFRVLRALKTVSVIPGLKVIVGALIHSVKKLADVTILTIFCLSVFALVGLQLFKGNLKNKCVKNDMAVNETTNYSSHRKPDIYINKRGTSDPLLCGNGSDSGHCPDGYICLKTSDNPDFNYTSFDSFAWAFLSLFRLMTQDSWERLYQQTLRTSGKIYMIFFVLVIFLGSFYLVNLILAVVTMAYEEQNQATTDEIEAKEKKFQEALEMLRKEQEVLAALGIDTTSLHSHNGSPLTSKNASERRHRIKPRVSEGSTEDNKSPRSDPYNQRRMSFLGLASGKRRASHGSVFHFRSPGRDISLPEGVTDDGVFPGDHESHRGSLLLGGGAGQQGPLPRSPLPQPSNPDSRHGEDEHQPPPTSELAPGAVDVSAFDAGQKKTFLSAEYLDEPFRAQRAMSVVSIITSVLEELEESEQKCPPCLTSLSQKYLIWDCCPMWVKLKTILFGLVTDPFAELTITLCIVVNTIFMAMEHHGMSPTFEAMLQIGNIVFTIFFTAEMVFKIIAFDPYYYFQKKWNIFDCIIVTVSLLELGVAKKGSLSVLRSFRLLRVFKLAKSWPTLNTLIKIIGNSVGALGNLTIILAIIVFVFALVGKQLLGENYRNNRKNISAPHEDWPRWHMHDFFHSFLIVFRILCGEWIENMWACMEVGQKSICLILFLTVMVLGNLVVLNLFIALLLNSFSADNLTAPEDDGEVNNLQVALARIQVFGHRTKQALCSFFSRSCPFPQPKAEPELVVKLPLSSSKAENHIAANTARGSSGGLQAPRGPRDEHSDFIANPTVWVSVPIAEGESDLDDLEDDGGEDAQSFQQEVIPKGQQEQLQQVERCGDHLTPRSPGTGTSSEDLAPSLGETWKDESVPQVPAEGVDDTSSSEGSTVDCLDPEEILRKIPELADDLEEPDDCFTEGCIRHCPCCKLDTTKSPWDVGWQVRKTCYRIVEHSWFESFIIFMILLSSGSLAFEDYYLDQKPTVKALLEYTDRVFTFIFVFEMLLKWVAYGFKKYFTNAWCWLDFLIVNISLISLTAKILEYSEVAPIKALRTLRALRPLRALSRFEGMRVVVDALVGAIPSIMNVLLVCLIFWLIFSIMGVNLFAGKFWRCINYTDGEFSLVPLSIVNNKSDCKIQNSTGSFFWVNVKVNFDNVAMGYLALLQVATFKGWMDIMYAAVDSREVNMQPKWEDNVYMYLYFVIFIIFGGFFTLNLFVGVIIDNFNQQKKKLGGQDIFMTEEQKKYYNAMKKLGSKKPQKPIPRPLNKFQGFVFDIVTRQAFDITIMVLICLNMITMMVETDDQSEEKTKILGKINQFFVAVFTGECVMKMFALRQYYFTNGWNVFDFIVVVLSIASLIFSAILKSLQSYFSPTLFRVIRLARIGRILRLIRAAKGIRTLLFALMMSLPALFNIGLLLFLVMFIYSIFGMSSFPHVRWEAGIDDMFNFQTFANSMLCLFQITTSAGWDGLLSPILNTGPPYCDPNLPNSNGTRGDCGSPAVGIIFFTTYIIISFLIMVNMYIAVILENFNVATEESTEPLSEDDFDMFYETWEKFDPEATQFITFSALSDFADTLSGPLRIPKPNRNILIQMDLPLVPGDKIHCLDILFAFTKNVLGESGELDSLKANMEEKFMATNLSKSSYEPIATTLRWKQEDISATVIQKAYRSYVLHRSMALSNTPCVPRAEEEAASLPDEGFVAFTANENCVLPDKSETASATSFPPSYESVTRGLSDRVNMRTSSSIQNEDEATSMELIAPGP

Cc1c(C(F)(F)F)nnc(N2CCCC(F)(F)CC2)c1C(=O)Nc1cccc([S@@](C)(=O)=NC(=O)CN2CC(F)(F)C2)c1 [Example 198, (R)-3-(4,4-difluoroazepan-1-yl)-N-(3-(N-(2-(3,3-difluoroazetidin-1-yl)acetyl)-S-methylsulfonimidoyl)phenyl)-5-methyl-6-(trifluoromethyl)pyridazine-4-carboxamide]
IC50 [1]: ≤ 5 nM | IC50 [2]: ≤ 5 nM

Cc1c(C#CC2CC2)cnc(N2CCCC(F)(F)CC2)c1C(=O)Nc1cccc([S@](C)(=N)=O)c1 [Example 63, (R)-5-(cyclopropylethynyl)-2-(4,4-difluoroazepan-1-yl)-4-methyl-N-(3-(S-methylsulfonimidoyl)phenyl)nicotinamide]
IC50 [1]: ≤ 5 nM | IC50 [2]: ≤ 5 nM

Cc1nc(N2CCN(C)CC2)nc(N2CCCC(F)(F)CC2)c1C(=O)Nc1cccc([S@](C)(=N)=O)c1 [Example 157, (R)-4-(4,4-difluoroazepan-1-yl)-6-methyl-2-(4-methylpiperazin-1-yl)-N-(3-(S-methylsulfonimidoyl)phenyl)pyrimidine-5-carboxamide]
IC50 [1]: > 200 nM | IC50 [2]: > 200 nM

CNCCN=[S@](C)(=O)c1cccc(NC(=O)c2c(N3CCCC(F)(F)CC3)ncc(-c3cnn(C)c3)c2C)c1 [Example 203, (R)-2-(4,4-difluoroazepan-1-yl)-4-methyl-5-(1-methyl-1H-pyrazol-4-yl)-N-(3-(S-methyl-N-(2-(methylamino)ethyl)sulfonimidoyl)phenyl)nicotinamide]
IC50 [1]: 5 to 50 nM | IC50 [2]: 5 to 50 nM

CNCCN=[S@](C)(=O)c1cccc(NC(=O)c2c(N3CCCC(F)(F)CC3)ncc(Br)c2C)c1 [Example 211, (R)-5-bromo-2-(4,4-difluoroazepan-1-yl)-4-methyl-N-(3-(S-methyl-N-(2-(methylamino)ethyl)sulfonimidoyl)phenyl)nicotinamide 2,2,2-trifluoroacetate]
IC50 [1]: ≤ 5 nM | IC50 [2]: ≤ 5 nM

Cc1c(-c2ccc(C#N)cc2)nnc(N2CCCC(F)(F)CC2)c1C(=O)Nc1cccc([S@](C)(=N)=O)c1 [Example 154, (R)-6-(4-cyanophenyl)-3-(4,4-difluoroazepan-1-yl)-5-methyl-N-(3-(S-methylsulfonimidoyl)phenyl)pyridazine-4-carboxamide]
IC50 [1]: 50 to 100 nM | IC50 [2]: 50 to 100 nM

C=CCCc1ccc(C(=O)Nc2cccc(S(C)(=N)=O)c2)c(N2CCCC(F)(F)CC2)n1 (stereo not shown) [Example 13, 6-(3-Buten-1-yl)-2-(4,4-difluoroazepan-1-yl)-N-(3-(S-methylsulfonimidoyl)phenyl)nicotinamide]
IC50 [1]: ≤ 5 nM | IC50 [2]: ≤ 5 nM

Cc1c(-c2cnn(C)c2)cnc(N2CCCC(F)(F)CC2)c1C(=O)Nc1cccc(S(C)(=N)=O)c1 (stereo not shown) [Example 83, 2-(4,4-difluoroazepan-1-yl)-4-methyl-5-(1-methyl-1H-pyrazol-4-yl)-N-(3-(S-methylsulfonimidoyl)phenyl)nicotinamide]
IC50 [1]: 50 to 100 nM | IC50 [2]: 50 to 100 nM

CNCC(=O)N=[S@](C)(=O)c1cccc(NC(=O)c2c(N3CCCC(F)(F)CC3)ccc(-c3cnn(C)c3)c2C)c1 [Example 175, (R)-6-(4,4-difluoroazepan-1-yl)-2-methyl-3-(1-methyl-1H-pyrazol-4-yl)-N-(3-(S-methyl-N-(methylglycyl)sulfonimidoyl)phenyl)benzamide]
IC50 [1]: 5 to 50 nM | IC50 [2]: 5 to 50 nM

Cc1c(-c2ccc(C#N)cc2)cnc(N2CCCC(F)(F)CC2)c1C(=O)Nc1cccc(S(C)(=N)=O)c1 (stereo not shown) [Example 81]
IC50 [1]: ≤ 5 nM | IC50 [2]: ≤ 5 nM

Cc1nc(N2CC(F)(F)C2)nc(N2CCCC(F)(F)CC2)c1C(=O)Nc1cccc([S@](C)(=N)=O)c1 [Example 158, (R)-4-(4,4-difluoroazepan-1-yl)-2-(3,3-difluoroazetidin-1-yl)-6-methyl-N-(3-(S-methylsulfonimidoyl)phenyl)pyrimidine-5-carboxamide]
IC50 [1]: 50 to 100 nM | IC50 [2]: 50 to 100 nM

Cc1c(C2CC2)nnc(N2CCCC(F)(F)CC2)c1C(=O)Nc1cccc(S(C)(=N)=O)c1 (stereo not shown) [Example 22, 6-cyclopropyl-3-(4,4-difluoroazepan-1-yl)-5-methyl-N-(3-(S-methylsulfonimidoyl)phenyl)pyridazine-4-carboxamide]
IC50 [1]: > 200 nM | IC50 [2]: > 200 nM

Cc1c(Br)cnc(N2CCCC(F)(F)CC2)c1C(=O)Nc1cccc([S@@](C)(=O)=NCCN)c1 [Example 209, (R)-N-(3-(N-(2-aminoethyl)-S-methylsulfonimidoyl)phenyl)-5-bromo-2-(4,4-difluoroazepan-1-yl)-4-methylnicotinamide 2,2,2-trifluoroacetate]
IC50 [1]: ≤ 5 nM | IC50 [2]: ≤ 5 nM

Cc1c(-c2cnn(C)c2)nnc(N2CCCC(F)(F)CC2)c1C(=O)NC12CC(C(N)=O)(C1)C2 [Example 141, N-(3-carbamoylbicyclo[1.1.1]pentan-1-yl)-3-(4,4-difluoroazepan-1-yl)-5-methyl-6-(1-methyl-1H-pyrazol-4-yl)pyridazine-4-carboxamide]
IC50 [1]: ≤ 5 nM | IC50 [2]: ≤ 5 nM

Cc1c(C#CCN(C)C)cnc(N2CCCC(F)(F)CC2)c1C(=O)Nc1cccc([S@](C)(=N)=O)c1 [Example 124, (R)-2-(4,4-difluoroazepan-1-yl)-5-(3-(dimethylamino)prop-1-yn-1-yl)-4-methyl-N-(3-(S-methylsulfonimidoyl)phenyl)nicotinamide]
IC50 [1]: 100 to 200 nM | IC50 [2]: 100 to 200 nM

Cc1c(-c2ccc(C#N)cc2)cnc(N2CCCC(F)(F)CC2)c1C(=O)Nc1cccc([S@@](C)(=O)=NC(=O)C(C)(C)N)c1 [Example 55, (R)-N-(3-(N-(2-amino-2-methylpropanoyl)-S-methylsulfonimidoyl)phenyl)-5-(4-cyanophenyl)-2-(4,4-difluoroazepan-1-yl)-4-methylnicotinamide]
IC50 [1]: ≤ 5 nM | IC50 [2]: ≤ 5 nM

CNCC(=O)N=[S@](C)(=O)c1cccc(NC(=O)c2c(N3CCCC(F)(F)CC3)ncc(C#N)c2C)c1 [Example 126, (R)-5-cyano-2-(4,4-difluoroazepan-1-yl)-4-methyl-N-(3-(S-methyl-N-(methylglycyl)sulfonimidoyl)phenyl)nicotinamide]
IC50 [1]: ≤ 5 nM | IC50 [2]: ≤ 5 nM

Cc1c(C(F)(F)F)nnc(N2CCC3(CC2)CC3)c1C(=O)Nc1cccc(S(C)(=N)=O)c1 (stereo not shown) [Example 94, 5-methyl-N-(3-(S-methylsulfonimidoyl)phenyl)-3-(6-azaspiro[2.5]octan-6-yl)-6-(trifluoromethyl)pyridazine-4-carboxamide]
IC50 [1]: > 200 nM | IC50 [2]: > 200 nM

Cc1c(C(F)(F)F)nnc(N2CC3(COC3)C2)c1C(=O)Nc1cccc(S(C)(=N)=O)c1 (stereo not shown) [Example 100, 5-methyl-N-(3-(S-methylsulfonimidoyl)phenyl)-3-(2-oxa-6-azaspiro[3.3]heptan-6-yl)-6-(trifluoromethyl)pyridazine-4-carboxamide]
IC50 [1]: > 200 nM | IC50 [2]: > 200 nM

Cc1ccc(-c2cnc(N3CCCC(F)(F)CC3)c(C(=O)Nc3cccc(S(C)(=N)=O)c3)c2C)cc1 (stereo not shown) [Example 96, 2-(4,4-difluoroazepan-1-yl)-4-methyl-N-(3-(S-methylsulfonimidoyl)phenyl)-5-(p-tolyl)nicotinamide]
IC50 [1]: ≤ 5 nM | IC50 [2]: ≤ 5 nM

C=CCCc1ccc(C(=O)Nc2cccc([S@](C)(=N)=O)c2)c(N2CCCC(F)(F)CC2)n1 [Example 35, (R)-6-(But-3-en-1-yl)-2-(4,4-difluoroazepan-1-yl)-N-(3-(S-methylsulfonimidoyl)phenyl)nicotinamide]
IC50 [1]: ≤ 5 nM | IC50 [2]: ≤ 5 nM

NC(=O)c1cccc(NC(=O)c2nnc(C(F)(F)F)cc2N2CCCC(F)(F)CC2)c1 [Example 38, N-(3-Carbamoylphenyl)-4-(4,4-difluoroazepan-1-yl)-6-(trifluoromethyl)pyridazine-3-carboxamide]
IC50 [1]: > 200 nM | IC50 [2]: > 200 nM

Cc1c(-c2ccc(Cl)cc2)cnc(N2CCCC(F)(F)CC2)c1C(=O)Nc1cccc([S@](C)(=N)=O)c1 [Example 67, (R)-5-(4-chlorophenyl)-2-(4,4-difluoroazepan-1-yl)-4-methyl-N-(3-(S-methylsulfonimidoyl)phenyl)nicotinamide]
IC50 [1]: ≤ 5 nM | IC50 [2]: ≤ 5 nM

Cc1nc(N2CCCC(F)(F)CC2)c(C(=O)Nc2cccc([S@](C)(=N)=O)c2)c(C)c1Br [Example 172, (R)-5-bromo-2-(4,4-difluoroazepan-1-yl)-4,6-dimethyl-N-(3-(S-methylsulfonimidoyl)phenyl)nicotinamide]
IC50 [1]: ≤ 5 nM | IC50 [2]: ≤ 5 nM

Cc1c(C(F)(F)F)cnc(N2CCCC(F)(F)CC2)c1C(=O)Nc1cccc([S@@](C)(=O)=NC(=O)[C@@H](C)O)c1 [Example 193, 2-(4,4-difluoroazepan-1-yl)-N-(3-((R)-N-((R)-2-hydroxypropanoyl)-S-methylsulfonimidoyl)phenyl)-4-methyl-5-(trifluoromethyl)nicotinamide]
IC50 [1]: ≤ 5 nM | IC50 [2]: ≤ 5 nM

Cc1c(C#N)c(C(F)(F)F)nc(N2CCCC(F)(F)CC2)c1C(=O)Nc1cccc([S@@](C)(=O)=NC(=O)C2CNC2)c1 [Example 57, (R)-N-(3-(N-(azetidine-3-carbonyl)-S-methylsulfonimidoyl)phenyl)-5-cyano-2-(4,4-difluoroazepan-1-yl)-4-methyl-6-(trifluoromethyl)nicotinamide formate]
IC50 [1]: ≤ 5 nM | IC50 [2]: ≤ 5 nM

C[S@+]([O-])c1cc(NC(=O)c2cc(Cl)c(C(F)(F)F)cc2N2CCCC(F)(F)CC2)ccc1F [Example 205, (S)-5-chloro-2-(4,4-difluoroazepan-1-yl)-N-(4-fluoro-3-(methylsulfinyl)phenyl)-4-(trifluoromethyl)benzamide]
IC50 [1]: ≤ 5 nM | IC50 [2]: ≤ 5 nM

Cc1n[nH]c(C)c1-c1cnc(N2CCCC(F)(F)CC2)c(C(=O)Nc2cccc([S@](C)(=N)=O)c2)c1C [Example 152, (R)-2-(4,4-difluoroazepan-1-yl)-5-(3,5-dimethyl-1H-pyrazol-4-yl)-4-methyl-N-(3-(S-methylsulfonimidoyl)phenyl)nicotinamide]
IC50 [1]: > 200 nM | IC50 [2]: > 200 nM

C[S@@+]([O-])c1cc(NC(=O)c2cc(Cl)c(C(F)(F)F)cc2N2CCCC(F)(F)CC2)ccc1F [Example 206, (R)-5-chloro-2-(4,4-difluoroazepan-1-yl)-N-(4-fluoro-3-(methylsulfinyl)phenyl)-4-(trifluoromethyl)benzamide]
IC50 [1]: ≤ 5 nM | IC50 [2]: ≤ 5 nM
